In PubChem BioAssay AID1421 (Emory University Molecular Libraries Screening Center, 2008) one finds PGE2 EC50 with compound and outcome data, which are given here for 92 compounds.

The source made the active and inactive calls. How the calls were made is not given here.

In this assay the target is Prostaglandin E2 receptor EP2 subtype (Homo sapiens) (UniProt P43116). Nature of the assay: EP2 receptor modulators, dose response, cell-based, human EP2, PGE2 EC50 shift (AID 1421). The note with it: EP2-expressing cells, PGE2 EC50 shift by compound; for PGE2 EC50 with compound: measured here: PGE2 EC50 at 6.7 uM compound.
Chain of Prostaglandin E2 receptor EP2 subtype (Homo sapiens) (P43116 whole entry, looked up): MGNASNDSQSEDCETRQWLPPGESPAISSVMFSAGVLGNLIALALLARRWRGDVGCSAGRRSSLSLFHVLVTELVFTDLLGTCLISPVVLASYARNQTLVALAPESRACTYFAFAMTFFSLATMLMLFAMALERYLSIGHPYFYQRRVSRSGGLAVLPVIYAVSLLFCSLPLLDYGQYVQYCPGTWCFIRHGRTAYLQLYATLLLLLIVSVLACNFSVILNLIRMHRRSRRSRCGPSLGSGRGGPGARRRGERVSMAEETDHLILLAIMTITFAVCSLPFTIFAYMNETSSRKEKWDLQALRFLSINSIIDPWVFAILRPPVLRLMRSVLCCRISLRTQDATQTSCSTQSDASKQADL

With `CCCN(CCC)C(C)C(=O)NCC1(c2ccccc2)CCCC1` (stereo unspecified), the PGE2 EC50 with compound was 0.94 nM.

`Oc1ccc(/C=N/N(Cc2ccccc2)c2ccccc2)cc1`: the PGE2 EC50 with compound was found to be 0.76 nM.

For the compound `c1ccc(-c2noc(-c3cccc4ccccc34)n2)cc1`, the PGE2 EC50 with compound was found to be 1.18 nM.

Regarding `C[C@H](C(=O)c1ccccc1)[C@@H](c1ccccc1)N1CCOCC1`, the PGE2 EC50 with compound was found to be 1.43 nM.

As to `Cc1ccc(NCc2n[nH]c(=S)n2Cc2ccccc2)cc1Cl`, the PGE2 EC50 with compound turned out to be 1.2 nM.

For the compound `FC(F)(F)c1cc(-c2ccccc2)nc(N2CCOCC2)n1`, the outcome was active and the PGE2 EC50 with compound amounted to 1.59 nM.

In the case of `O=C(CSc1nc(Cc2ccccc2)nc2ccccc12)c1ccc2c(c1)OCCO2`, the PGE2 EC50 with compound came out at 1.23 nM.

Consider `CCOC(=O)c1c(NC(=O)CN2C(=O)NC3(CCCCCC3)C2=O)sc(C)c1-c1ccc(C)cc1`, for which the PGE2 EC50 with compound was 0.76 nM.

On to `CC[C@@H]1C(=O)OC[C@@H]1Cc1cncn1C`, for which the PGE2 EC50 with compound was 1.8 nM.

As for `Cc1cccc(CSc2ncnc3ccccc23)c1`, the PGE2 EC50 with compound was found to be 0.87 nM.

As for `COc1cc(-c2nc(-c3cccc(C)c3)no2)cc(OC)c1OC`, the result was active and the PGE2 EC50 with compound was 1.14 nM.

Take `CC(C)(C)n1nnnc1C(c1ccncc1)N(Cc1ccccc1)Cc1ccco1` (stereo unspecified): the PGE2 EC50 with compound was 1.03 nM.

As for `CCCOc1ccc(Cl)cc1CNc1ccccc1`, the outcome was active and the PGE2 EC50 with compound was determined as 1.22 nM.

In the case of `Cc1ccc(Cl)cc1NC(=S)N(Cc1ccco1)C(C)c1cccs1` (stereo unspecified), the PGE2 EC50 with compound is 1.51 nM.

Take `CCc1nc(N2CCC(C)CC2)c2oc3ccccc3c2n1`: the PGE2 EC50 with compound came out at 1.23 nM.

Consider `Cc1oncc1-c1csc(-c2ccccc2Cl)n1`, for which the PGE2 EC50 with compound was determined as 1 nM.

Take `CCCCCn1c(SCCC(C)C)nc2c1c(=O)[nH]c(=O)n2C`: the PGE2 EC50 with compound was found to be 1.21 nM.

For `CC(=O)CSc1ncnc2sc3c(c12)CCC(C)C3` (stereo unspecified), the PGE2 EC50 with compound was 1.75 nM.

Take `COc1ccc(-c2cc(C(F)(F)F)nc(NC3CCCC3)n2)cc1OC`: the PGE2 EC50 with compound came out at 0.7 nM.

For the compound `CCCCCCC/C=C\CCCCCCCCC(=O)O`, the PGE2 EC50 with compound is 1.56 nM.

For the compound `COc1ccc(C(=O)c2cnc3ccccc3c2-c2ccccc2)cc1`, the PGE2 EC50 with compound was 0.59 nM.

With `CC(C)CCn1c(N2CCN(c3cccc(Cl)c3)CC2)nc2c1c(=O)[nH]c(=O)n2C`, the PGE2 EC50 with compound was 0.93 nM.

Consider `C=CCn1c(=O)c2c(nc(-c3ccc(S(=O)(=O)O)cc3)n2C)n(C)c1=O`, for which the PGE2 EC50 with compound is 2.68 nM.

For `O=C1c2ccccc2OC2(C=Cc3ccccc3O2)N1Cc1ccccc1` (stereo unspecified), the PGE2 EC50 with compound was 0.31 nM.

Regarding `CCOC(=O)CSc1nc(Cc2ccccc2)nc2ccccc12`, the PGE2 EC50 with compound worked out at 1.15 nM.

Turning to `Cc1ccc(-c2csc3ncnc(N4CCc5ccccc5C4)c23)cc1`, the PGE2 EC50 with compound turned out to be 0.93 nM.

As to `Cc1cccc2cc(CN(Cc3cccs3)C3(c4nnnn4C4CCCC4)CCCC3)c(=O)[nH]c12`, the PGE2 EC50 with compound came to 1.08 nM.

Regarding `CC(C)n1cc(-c2ccc(Cl)cc2)cc(C#N)c1=O`, the PGE2 EC50 with compound stood at 1.21 nM.

`Cc1ccccc1NC(=S)N(Cc1ccco1)C(C)c1cccs1` (stereo unspecified): the PGE2 EC50 with compound came to 1.68 nM.

`O=S1(=O)N=C(N(CCO)/N=C/C=C/c2ccccc2)c2ccccc21`: the PGE2 EC50 with compound worked out at 2.08 nM.

On to `CC1=C/C(=C(/c2ccc(O)c(C)c2)c2ccccc2C(=O)O)C=CC1=O`, for which the PGE2 EC50 with compound came to 0.96 nM.

With `O=C(Nc1ccccc1N1CCCCC1)c1ccc(Cl)c([N+](=O)[O-])c1`, the PGE2 EC50 with compound worked out at 1.23 nM.

Regarding `Cc1ccc(NCc2ccccc2OCc2ccccc2F)cc1`, the outcome was active and the PGE2 EC50 with compound came to 0.86 nM.

For `S=C(Nc1ccccc1Cl)N(Cc1ccccc1)Cc1ccccn1`, the PGE2 EC50 with compound came out at 1.62 nM.

In the case of `N#CC1(Cc2ccccc2Cl)c2ccccc2C=CN1C(=O)c1ccccc1` (stereo unspecified), the PGE2 EC50 with compound is 1.54 nM.

`N#Cc1sc2nc(C3CC3)cc(-c3ccc(Cl)cc3)c2c1N`: the PGE2 EC50 with compound turned out to be 0.81 nM.

On to `Cc1cc(SCC(=O)Nc2cccnc2Cl)nc2ccccc12`, for which the PGE2 EC50 with compound was 0.87 nM.

In the case of `CCOC(=O)c1c(NC(=O)c2ccco2)sc2c1CCCCC2`, the result was active and the PGE2 EC50 with compound is 0.87 nM.

`O=C(c1ccc2c(c1)OCO2)N(Cc1cccs1)C1(C(=O)NC2CCCCC2)CCCCC1`: the PGE2 EC50 with compound was 1.08 nM.

Consider `COC(=O)c1sccc1NC(=O)c1cc2c(s1)CCCC2`, for which the PGE2 EC50 with compound worked out at 1.01 nM.

Regarding `CCOc1ccc(Cc2n[nH]c(=S)n2Cc2ccccc2)cc1`, the PGE2 EC50 with compound turned out to be 0.69 nM.

In the case of `Cc1ccc(S(=O)(=O)NCC(=O)OCN2C(=O)c3ccccc3C2=O)cc1`, the PGE2 EC50 with compound was 1.01 nM.

In the case of `CCC1C/C(=C/c2ccco2)C(=O)/C(=C/c2ccco2)C1` (stereo unspecified), the PGE2 EC50 with compound was determined as 1.02 nM.

On to `CC(=O)N1c2ccccc2C(C)CC12CCCCC2` (stereo unspecified), for which the PGE2 EC50 with compound was determined as 2.48 nM.

As to `Cc1ccc(-n2c(=S)[nH]c3c(oc4ccccc43)c2=O)cc1`, the PGE2 EC50 with compound amounted to 2.77 nM.

`CCOC(=O)CSc1nc(-c2ccccc2)nc2ccccc12`: the PGE2 EC50 with compound was determined as 0.87 nM.

Turning to `CN1C(=O)/C(=C/c2ccccc2OCc2cccc(F)c2)N(C)C1=S`, the PGE2 EC50 with compound worked out at 0.81 nM.

Turning to `Cc1occc1-c1nnc(SCC(=O)Nc2ccccc2N2CCCCC2)n1C`, the PGE2 EC50 with compound was 2.71 nM.

Turning to `CC(=O)c1sc2nc(-c3ccc(C)cc3)c3c(c2c1N)CCCC3`, the PGE2 EC50 with compound is 2.47 nM.

`Cn1c(=O)c2c(SCc3cccnc3)nc(CC(C)(C)C)nc2n(C)c1=O`: the PGE2 EC50 with compound worked out at 2.57 nM.

For the compound `COc1ccccc1/C=N/N(C(C)=O)c1nc(-c2ccc(F)cc2)cs1`, the PGE2 EC50 with compound came to 1.1 nM.

For `COc1cnc(N(C)C)nc1Sc1cccc(Cl)c1`, the PGE2 EC50 with compound turned out to be 1.13 nM.

For the compound `CCOC(=O)c1c(NC(=O)CN2CCCCC2)sc2c1CCN(C(=O)OCC)C2`, the PGE2 EC50 with compound is 0.9 nM.

Consider `O=C(Nc1ccccc1Sc1ccccc1)c1ccc(F)cc1`, for which the result was active and the PGE2 EC50 with compound turned out to be 0.97 nM.

With `Cc1nc(N2N=C(c3ccc(Cl)cc3)CC2c2ccco2)sc1C(=O)N(C)C` (stereo unspecified), the PGE2 EC50 with compound was found to be 2.73 nM.

As for `COc1ccc2cc(CN(Cc3ccco3)C(c3nnnn3C3CCCCC3)C(C)C)c(=O)[nH]c2c1` (stereo unspecified), the PGE2 EC50 with compound is 0.76 nM.

Consider `CCN(CC)C(=O)c1nn(-c2ccccc2)c2c1C1CCC2(C)C1(C)C` (stereo unspecified), for which the PGE2 EC50 with compound is 1.24 nM.

Regarding `CC(=O)c1ccc(-n2c(C)ccc2-c2ccccc2)cc1`, the PGE2 EC50 with compound came out at 2.52 nM.

As for `COc1cc2ccccc2cc1C(=O)NC(=S)Nc1cccc(C(=O)O)c1`, the PGE2 EC50 with compound was 0.75 nM.

With `CC(C)OC(=O)c1c(NC(=O)c2cccs2)sc2c1CCCC2`, the result was active and the PGE2 EC50 with compound was found to be 1.01 nM.

For the compound `O=c1[nH]c2ccc(Cl)cc2c(-c2ccccc2)c1N1CCOCC1`, the outcome was active and the PGE2 EC50 with compound amounted to 1.13 nM.

On to `C=CCSc1nc(N(CC)CC)c2sccc2n1`, for which the PGE2 EC50 with compound worked out at 0.98 nM.

Regarding `c1ccc(CCc2ccccc2-c2nc(-c3cccnc3)no2)cc1`, the PGE2 EC50 with compound came out at 0.84 nM.

As to `Cc1cc(=O)oc(C)c1C(=O)OC(C(=O)c1ccccc1)c1ccccc1` (stereo unspecified), the PGE2 EC50 with compound came to 1.57 nM.

As to `N#Cc1c(-c2c(Cl)cccc2Cl)noc1/C=C/Nc1ccc(C(=O)O)cc1`, the PGE2 EC50 with compound came to 0.7 nM.

As to `CCc1ccc(NC(=S)N(Cc2ccccc2)Cc2ccccn2)cc1`, the result was active and the PGE2 EC50 with compound is 2.7 nM.

Take `CCn1ncc(Cl)c1C(=O)Nc1cc(Cl)ccc1Cl`: the PGE2 EC50 with compound turned out to be 0.7 nM.

Take `CCn1nnc(-c2ccccc2NC(=O)c2cc(OC)cc(OC)c2)n1`: the PGE2 EC50 with compound came to 0.95 nM.

Consider `O=C(OCc1ccc(Cl)cc1)c1ccccc1C(=O)c1ccccc1`, for which the PGE2 EC50 with compound was determined as 1.02 nM.

With `Fc1ccc(Sc2nc(-c3ccccc3)nnc2C(F)(F)F)cc1`, the PGE2 EC50 with compound is 0.94 nM.

Consider `N/C(CSc1nc(-c2ccccc2)c(-c2ccccc2)o1)=N\O`, for which the PGE2 EC50 with compound is 1.14 nM.

Consider `CCOC(=O)c1c(C)nc2ccccc2c1-c1ccccc1`, for which the PGE2 EC50 with compound was determined as 1.31 nM.

Regarding `CCOC(=O)c1c(CC(C)C)csc1NC(=O)CCl`, the PGE2 EC50 with compound was 1.13 nM.

As to `COc1cc2c(cc1OC)-c1cc(Nc3ccc4c(c3)OCCO4)nc(=O)n1CC2`, the PGE2 EC50 with compound stood at 2.5 nM.

As to `CCOc1ccccc1C(=O)Nc1ccsc1C(=O)OC`, the PGE2 EC50 with compound was 1.32 nM.

For `COc1ccccc1-c1nnc(SCC(=O)c2ccc(C3CCCCC3)cc2)n1Cc1ccco1`, the PGE2 EC50 with compound turned out to be 0.71 nM.

`CCOC(=O)c1c(NC(=O)COC(=O)Cn2cnc3ccccc32)sc2c1CCC(C)C2` (stereo unspecified): the PGE2 EC50 with compound is 0.79 nM.

Take `COc1ccc(-c2nc3ccccc3n2Cc2ccccc2)cc1`: the PGE2 EC50 with compound turned out to be 1.05 nM.

On to `CC(Sc1cnc2ccccc2n1)C(=O)O` (stereo unspecified), for which the PGE2 EC50 with compound is 2.61 nM.

For `Cc1nc(N(C)C)c2sc(=S)n(Cc3ccccc3)c2n1`, the PGE2 EC50 with compound is 1.21 nM.

As for `COC(=O)c1ccc(CSc2ncnc3c2oc2ccccc23)o1`, the PGE2 EC50 with compound worked out at 2.45 nM.

On to `COc1ccccc1CN(C)CC(=O)Nc1ccccc1-c1ccccc1`, for which the PGE2 EC50 with compound was 1.43 nM.

For `COC(=O)CSc1nc(Cc2ccccc2)nc2ccccc12`, the PGE2 EC50 with compound stood at 2.72 nM.

Consider `N#CCSc1nc2ccccc2c(=O)n1C1CCCCC1`, for which the PGE2 EC50 with compound worked out at 1.09 nM.

On to `CCCCC(CC)CN1CN(CC(CC)CCCC)CC(C)(N)C1` (stereo unspecified), for which the PGE2 EC50 with compound stood at 1.05 nM.

Take `Nc1c(C(=O)Nc2ccccc2F)sc2nc(Cc3ccccc3)cc(C(F)(F)F)c12`: the PGE2 EC50 with compound worked out at 0.62 nM.

For `O=C(COc1ccccc1)Nc1ccccc1Oc1ccccc1`, the PGE2 EC50 with compound came to 1.41 nM.

As to `Cc1onc(-c2ccccc2Cl)c1-c1nc(-c2ccncc2)no1`, the PGE2 EC50 with compound is 0.83 nM.

Turning to `COc1ccc(CN2C(=O)CN=C2Nc2cc(C)ccc2C)cc1`, the PGE2 EC50 with compound was determined as 1.04 nM.

On to `O=C(Nc1ccccc1Br)c1ccccc1-c1ccccc1`, for which the PGE2 EC50 with compound was determined as 2.5 nM.

With `CN(C)c1nc(N2CCOCC2)nc(N(c2ccccc2)c2ccccc2)n1`, the PGE2 EC50 with compound is 0.61 nM.

With `Cc1cc(C(=O)Nc2cccc(/C=C/C(=O)O)c2)c(C)o1`, the PGE2 EC50 with compound was 0.36 nM.
